This note sets out measurements from US4405619A, “Antiinflammatory substituted-1,2,4-triazolo[4,3-b]-1,2,4-triazines” (Diamond Shamrock Corporation, priority 1981, dated 1983).

What is called ED50 is the dose that gives a 50% effect, or the effect in half of the subjects.

Assay [1] deals with carrageenin-induced edema. The experiment in a line: Carrageenin-induced edema (antiinflammatory) assay, rat hind paw. The settings on record: for ED50: 3 h, oral, dose which reduced edema formation by about 25% or more vs. mean control response in 50% of the animals; for inhibition in vivo at 200 mg/kg: 200 mg/kg oral. It counts as in vivo, rat (Long Evans strain, male). How it is done: The procedure employed is a modification of the method of Winter et al., Proc. Soc. Exptl. Biol. Med., 111:544 (1962). The device used for measurement of the paw volume is an adaptation of the water displacement procedure described by Adamkiewicz et al., Can. J. Biochem. Physiol., 33:332 (1955). Test compounds were administered orally, one hour prior to the intraplanter injection of 0.05 mL. of sterile 1.0% solution of carrageenin into the left hind paw of male rats (Long Evans strain) weighing between about 130-200 g. At peak swelling time (3 hrs.) the volume of edema was calculated by differential paw volumes.
Selected compounds of the invention were further tested to determine their ED50 values. The ED50 value is defined as that dose which reduced edema formation by about 25% or more compared with the mean control response (parallel run) in 50% of the animals. Typical results of these tests appear in Table II.
(In general: In the carrageenan paw model, swelling and tenderness develop within hours.)

Assay [2] has as its system phenylquinone writhing. The experiment in a line: Phenylquinone writhing test (analgesic assay). Type of assay: in vivo, mouse (Carworth CF1, male). The settings on record: for Phenylquinone Writhing Assay (% Control), percent analgesia, 15 min.: 15 min. after administration; for Phenylquinone Writhing Assay (% Control), percent analgesia, 30 min.: 30 min. after administration; for Phenylquinone Writhing Assay (% Control), percent analgesia, 60 min.: 60 min. after administration. The procedure: Phenylquinone writhing test was employed to evaluate analgesic activity for selected compounds for the present invention according to the following procedure:
Phenylquinone (phenyl-p-benzoquinone, No. 7104, Eastman Organic Chemicals) is made up as a 0.02% aqueous solution and 5% ethyl alcohol. Phenylquinone solutions are made up fresh twice daily. Standard reference agents and the test compounds are dissolved or suspended in a 0.25% methylcellulose solution. A control group consisting of 10 mice (Carworth CF1 male mice) are administered the 0.02% phenylquinone solution at a dose of 0.25 mL./mouse. The mice are housed individually and observed closely for 10 min. for exhibition of writhing. The onset of writhing occurs within 3 min. and 100% of the mice must writh within 10 min. Test compounds are administered orally to groups of 10 mice. The volume given is 0.01 mL. per gram of body weight. Activity can be studied at 15, 30, 60 and 120 min. after oral administration. After the designated time interval of a dose group has elapsed, the mice are challenged with phenylquinone intraperitoneally. Complete blocking of the writhing syndrome for the 10-min. observation period in any one mouse is considered a positive analgesic response for that mouse. Conversely, if any mouse wriths definitely once, it is considered not to be protected. The number of mice not writhing in a group multiplied by 10 equals percent analgesia for that dose at the time interval.
On the technique in general: Writhing tests count abdominal constrictions after an irritant is injected.

Setting [3] is: Rattus norvegicus, 1 hour before carrageenin, edema at peak swelling time (3 hrs.), read-out: % Reduction of Edema.

On to `Cc1nnc2nc(-c3cccc(Cl)c3)cnn12` [Example 1, 1,2,4-triazolo[4,3-b]-1,2,4-triazine, 3-methyl-7-(3-chlorophenyl)], for which, in assay [1] (Rattus norvegicus), the ED50 was determined as 30 mg/kg. Also, in assay [1] (setting [3]), the inhibition in vivo at 200 mg/kg was 39%.

As for `COCc1nnc2nc(-c3ccccc3)cnn12` [Example 2, 1,2,4-triazolo[4,3-b]-1,2,4-triazine, 3-methoxymethyl-7-phenyl], in assay [1] (setting [3]), the inhibition in vivo at 200 mg/kg turned out to be 26%.

In the case of `Oc1nnc2nc(-c3ccccc3)cnn12` [Example 3, 1,2,4-triazolo[4,3-b]-1,2,4-triazine, 3-hydroxy-7-phenyl], in assay [1] (setting [3]), the inhibition in vivo at 200 mg/kg came out at 22%.

Take `CC(C)c1nnc2nc(-c3ccccc3)cnn12` [Example 4, 1,2,4-triazolo[4,3-b]-1,2,4-triazine, 3-isopropyl-7-phenyl]: the inhibition in vivo at 200 mg/kg in assay [1] (setting [3]) was 18%. Further, in assay [2] (100 mg/kg oral), the “Phenylquinone Writhing Assay (% Control), percent analgesia, 15 min.” value is reported as 10%; the “Phenylquinone Writhing Assay (% Control), percent analgesia, 30 min.” value was 20%; the “Phenylquinone Writhing Assay (% Control), percent analgesia, 60 min.” value is listed as 20%.

Turning to `CCc1nnc2nc(-c3ccccc3)cnn12` [Example 5, 1,2,4-triazolo[4,3-b]-1,2,4-triazine, 3-ethyl-7-phenyl], the ED50 in assay [1] (Rattus norvegicus) stood at 100 mg/kg. In assay [1] (setting [3]), the inhibition in vivo at 200 mg/kg turned out to be 40%. Besides, in assay [2] (100 mg/kg oral), the “Phenylquinone Writhing Assay (% Control), percent analgesia, 15 min.” value is 30%; the “Phenylquinone Writhing Assay (% Control), percent analgesia, 30 min.” value was found to be 30%; the “Phenylquinone Writhing Assay (% Control), percent analgesia, 60 min.” value came to 70%.

With `CC(C)c1nnc2nc(-c3ccc(Cl)c(Cl)c3)cnn12` [Example 6, 1,2,4-triazolo[4,3-b]-1,2,4-triazine, 3-isopropyl-7-(3',4'-dichlorophenyl)], in assay [1] (setting [3]), the inhibition in vivo at 200 mg/kg is 33%.

In assay [1] (Rattus norvegicus), `Clc1ccc(-c2cnn3cnnc3n2)cc1Cl` [Example 7, 1,2,4-triazolo[4,3-b]-1,2,4-triazine, 7-(3',4'-dichlorophenyl)] displayed a median effective dose (ED50) of 1 mg/kg. In addition, the inhibition in vivo at 200 mg/kg in assay [1] (setting [3]) was 36%. Further, in assay [2] (100 mg/kg oral), the “Phenylquinone Writhing Assay (% Control), percent analgesia, 15 min.” value was determined as 30%; the “Phenylquinone Writhing Assay (% Control), percent analgesia, 30 min.” value amounted to 50%; the “Phenylquinone Writhing Assay (% Control), percent analgesia, 60 min.” value stood at 30%.

With `COCc1nnc2nc(-c3ccc(C)cc3)cnn12` [Example 8, 1,2,4-triazolo[4,3-b]-1,2,4-triazine, 3-methoxymethyl-7-(4'-methylphenyl)], the “% Reduction of Edema” value in assay [1] (100 mg/kg oral, 1 hour before carrageenin, edema at peak swelling time (3 hrs.)) is 16%.

Turning to `Cc1nnc2nc(-c3ccccc3)c(-c3ccccc3)nn12` [Example 9, 1,2,4-triazolo[4,3-b]-1,2,4-triazine, 3-methyl-6,7-diphenyl], in assay [1] (setting [3]), the inhibition in vivo at 200 mg/kg came to 35%.

In assay [1] (Rattus norvegicus), `Clc1ccc(-c2cnn3cnnc3n2)cc1` [Example 10, 1,2,4-triazolo[4,3-b]-1,2,4-triazine, 7-(4'-chlorophenyl)] returned an ED50 of 10 mg/kg. Besides, the inhibition in vivo at 200 mg/kg in assay [1] (setting [3]) turned out to be 27%.

On to `Cc1nnc2nc(-c3ccccc3)cnn12` [Example 12, 1,2,4-triazolo[4,3-b]-1,2,4-triazine, 3-methyl-7-phenyl], for which the inhibition in vivo at 200 mg/kg in assay [1] (setting [3]) was 70%.

With `c1ccc(-c2cnn3cnnc3n2)cc1` [Example 13, 1,2,4-triazolo[4,3-b]-1,2,4-triazine, 7-phenyl], the inhibition in vivo at 175 mg/kg in assay [1] (Rattus norvegicus, 175 mg/kg oral, 1 hour before carrageenin, edema at peak swelling time (3 hrs.), read-out: % Reduction of Edema) was determined as 82%. In assay [2] (50 mg/kg oral), the “Phenylquinone Writhing Assay (% Control), percent analgesia, 15 min.” value was determined as 20% and the “Phenylquinone Writhing Assay (% Control), percent analgesia, 30 min.” value is given as 20%.

In the case of `FC(F)(F)c1nnc2nc(-c3ccccc3)cnn12` [Example 15, 1,2,4-triazolo[4,3-b]-1,2,4-triazine, 3-trifluoromethyl-7-phenyl], the inhibition in vivo at 200 mg/kg in assay [1] (setting [3]) stood at 30%.

Regarding `c1ccc(-c2nc3nncn3nc2-c2ccccc2)cc1` [Example 22, 1,2,4-triazolo[4,3-b]-1,2,4-triazine, 6,7-diphenyl], the inhibition in vivo at 200 mg/kg in assay [1] (setting [3]) was determined as 32%.

On to `CC(C)c1nnc2nc(-c3ccccc3)c(-c3ccccc3)nn12` [Example 23, 1,2,4-triazolo[4,3-b]-1,2,4-triazine, 3-isopropyl-5,6-diphenyl], for which the 50% effect level in assay [1] (Rattus norvegicus) (ED50) was put at a dose of 30 mg/kg. In addition, the inhibition in vivo at 200 mg/kg in assay [1] (setting [3]) was 37%.

As to `Cc1nc2nnc(C)n2nc1C` [Example 25, 1,2,4-triazolo[4,3-b]-1,2,4-triazine, 3,6,7-trimethyl], the inhibition in vivo at 200 mg/kg in assay [1] (setting [3]) was found to be 49%.

Turning to `Cc1nnc2nc(-c3ccccc3Cl)cnn12` [Example 26, 1,2,4-triazolo[4,3-b]-1,2,4-triazine, 3-methyl-7-(2'-chlorophenyl)], the inhibition in vivo at 200 mg/kg in assay [1] (setting [3]) was 56%.

`Clc1cccc(-c2cnn3cnnc3n2)c1` [Example 28, 1,2,4-triazolo[4,3-b]-1,2,4-triazine, 7-(3'-chlorophenyl)]: the inhibition in vivo at 200 mg/kg in assay [1] (setting [3]) came out at 21%.

For `Clc1ccccc1-c1cnn2cnnc2n1` [Example 36, 1,2,4-triazolo[4,3-b]-1,2,4-triazine, 7-(2'-chlorophenyl)], the inhibition in vivo at 200 mg/kg in assay [1] (setting [3]) came out at 65%.
